pEC50, pIC50: −log10 of the molar value.
Columns and labels:
Type in all cases: cell-based, human
[1] = system: GBM8 (high-passage patient-derived GBM line); test: Drug screening of GBM8 tumor foci on OBSCs
Procedure: (§1) Tumor cells (0.17 μL, 25,000 cells) were seeded onto OBSCs 2h after slicing, with one tumor seeded in the center of each hemisphere for a total of two tumor foci per OBSC. BSM was changed 24h after slicing. Fluorescence images were taken 0 h, 24 h, and 96 h post-seeding for normalization of tumor size. Bioluminescence readouts were also taken at 0 h, 24 h, and 96 h post seeding for assessment of cell viability. Luciferin was added underneath the culture insert and allowed to incubate for 10 min before bioluminescence measurement on an AMI optical imaging system.
(§2) Tumor cells were seeded onto OBSCs 2h after slicing as described above. One day after tumor seeding, six concentrations of each drug were diluted in the media underneath each culture insert, or XRad was applied using an X-Rad 320 Precision X-ray machine (n = 4 tumor foci per concentration; n ≥ 24 tumor foci per drug per cell line). Three days after treatment, the bioluminescence of live tumor cells was measured using an AMI optical imager (Spectral Instruments) and dose-response curves were generated. Tumor survival was normalized to day one tumor fluorescence and compared to an untreated control group.
(§3) Several weighted parameters were factored into an overall drug sensitivity score.
(§4) For DSS parameters 1–6, therapeutic windows were calculated by comparing OBSC toxicity and tumor response at the doses where tumor kill passed through the DSS parameter (Table S1 and S3). For DSS parameter 7, the therapeutic window was calculated by comparing the slopes through the tumor EC50 and the OBSC tox EC50. For DSS parameter 8, the therapeutic window was calculated by comparing the areas under tumor kill and OBSC tox curves. Normalized therapeutic window ratios for DSS parameters 1–8 within each drug-tumor-OBSC interaction were calculated in the following manner: within each window, values ranged from +1 to −1, where values approaching +1 signify increasing tumor kill relative to normal tissue toxicity, and values approaching −1 indicate agents where tumors remained highly viable while toxicity to the normal OBSC tissue was elevated. DSS parameters 9–11 were determined based on the behavior of the tumor in response to the drug, as defined above.
(§5) All individually weighed parameters were added together to generate the DSS. Overall DSS from 0 to 100 signify increasing efficacy in tumor kill relative to OBSC toxicity, while scores from 0 to −100 describe scenarios in which tumors thrive more effectively than OBSCs for a given treatment. Dose-response values were calculated via linear interpolation of raw data, not from best-fit curve equations.

[2] = system: MB231Br (breast cancer metastasis to brain); test: Drug screening of MB231Br tumor foci on OBSCs
[3] = system: LN229 (established GBM line); test: Drug screening of LN229 tumor foci on OBSCs
Procedure: as §1, §2, §3, §4, §5

[4] = system: MS21 (low-passage patient-derived GBM line); test: Drug screening of MS21 tumor foci on OBSCs
Procedure: as §1, §2, §3, §4, §5

[5] = system: U373WT (wild-type established GBM line); test: Drug screening of U373WT tumor foci on OBSCs
Procedure: as §1, §2, §3, §4, §5

[6] = system: PDIPG (low-passage pediatric patient-derived line); test: Drug screening of PDIPG tumor foci on OBSCs
Procedure: as §1, §2, §3, §4, §5

[7] = system: U373KO (RAD18 knockout of U373WT via CRISPR); test: Drug screening of U373KO tumor foci on OBSCs; conditions: U373 KO on OBSCs
Procedure: as §1, §2, §3, §4, §5

[8] = area under the dose-response curve, trapezoidal rule
[9] = dose required to kill 10% of the tumor
[10] = dose required to kill 25% of the tumor
[11] = dose required to kill 75% of the tumor

## O=NN(CCCl)C(=O)NC1CCCCC1 [Lomustine]
[1]; GBM8 on OBSCs
  Killing at highest dose: 1.00E+00 fraction of tumor population killed
[1]; GBM8 on OBSCs, area under the dose-response curve, trapezoidal rule
  AUC: 1.54E+01
[1]; GBM8 on OBSCs, dose required to kill 10% of the tumor
  EC10: 0.685 µM
[1]; GBM8 on OBSCs, dose required to kill 25% of the tumor
  EC25: 1.71 µM
[1]; GBM8 on OBSCs, dose required to kill 75% of the tumor
  EC75: 5.45 µM
[1]; GBM8 on OBSCs, slope through the EC50
  Slope: -1.46E-01
[1]; Homo sapiens
  pEC50: 5.46
  EC90: 8.71 µM
  pIC50: 5.47
[2]; Homo sapiens, MB231BR on OBSCs, dose required to kill 50% of the tumor
  pEC50: 2.79
[2]; Homo sapiens, MB231BR on OBSCs, dose required to kill 90% of the tumor
  EC90: 1940 µM
[2]; Homo sapiens, MB231Br on OBSCs, dosed day 1, survival via bioluminescence day 4, linear interpolation
  pIC50: 2.79
[2]; MB231BR on OBSCs
  Killing at highest dose: 9.70E-01 fraction of tumor population killed
[2]; MB231BR on OBSCs, area under the dose-response curve, trapezoidal rule
  AUC: 1.96E+03
[2]; MB231BR on OBSCs, dose required to kill 10% of the tumor
  EC10: 1280 µM
[2]; MB231BR on OBSCs, dose required to kill 25% of the tumor
  EC25: 1400 µM
[2]; MB231BR on OBSCs, dose required to kill 75% of the tumor
  EC75: 1820 µM
[2]; MB231BR on OBSCs, slope through the EC50
  Slope: -1.20E-03
[3]
  Killing at highest dose: 1.00E+00 fraction of tumor population killed
[3]; Homo sapiens, LN-229, dose required to kill 50% of the tumor
  pEC50: 3.02
[3]; Homo sapiens, LN-229, dose required to kill 90% of the tumor
  EC90: 1780 µM
[3]; Homo sapiens, LN-229, dosed day 1, survival via bioluminescence day 4, linear interpolation
  pIC50: 3.02
[3]; [8]
  AUC: 9.70E+02
[3]; [9]
  EC10: 417 µM
[3]; [10]
  EC25: 758 µM
[3]; [11]
  EC75: 1440 µM
[3]; slope through the EC50
  Slope: -1.24E-03
[4]; Homo sapiens
  pEC50: 2.81
  EC90: 1990 µM
  pIC50: 2.81
[4]; MS21 on OBSCs
  Killing at highest dose: 9.10E-01 fraction of tumor population killed
[4]; MS21 on OBSCs, area under the dose-response curve, trapezoidal rule
  AUC: 1.61E+03
[4]; MS21 on OBSCs, dose required to kill 10% of the tumor
  EC10: 1120 µM
[4]; MS21 on OBSCs, dose required to kill 25% of the tumor
  EC25: 1280 µM
[4]; MS21 on OBSCs, dose required to kill 75% of the tumor
  EC75: 1830 µM
[4]; MS21 on OBSCs, slope through the EC50
  Slope: -9.20E-04
[5]; Homo sapiens, U373 MG, U373 WT on OBSCs, dose required to kill 50% of the tumor
  pEC50: 3.18
[5]; Homo sapiens, U373 MG, U373 WT on OBSCs, dose required to kill 90% of the tumor
  EC90: 1960 µM
[5]; Homo sapiens, U373 MG, U373 WT on OBSCs, dosed day 1, survival via bioluminescence day 4, linear interpolation
  pIC50: 3.18
[5]; U373 WT on OBSCs
  Killing at highest dose: 9.10E-01 fraction of tumor population killed
[5]; U373 WT on OBSCs, area under the dose-response curve, trapezoidal rule
  AUC: 8.89E+02
[5]; U373 WT on OBSCs, dose required to kill 10% of the tumor
  EC10: 139 µM
[5]; U373 WT on OBSCs, dose required to kill 25% of the tumor
  EC25: 554 µM
[5]; U373 WT on OBSCs, dose required to kill 75% of the tumor
  EC75: 1380 µM
[5]; U373 WT on OBSCs, slope through the EC50
  Slope: -2.24E-03
[5]; U373 WT, scale -100 to +100, tumor kill relative to OBSC toxicity
  DSS (drug sensitivity score): 64
[6]; Homo sapiens
  pEC50: 3.16
  EC90: 1880 µM
  pIC50: 3.16
[6]; PDIPG on OBSCs
  Killing at highest dose: 9.30E-01 fraction of tumor population killed
[6]; PDIPG on OBSCs, area under the dose-response curve, trapezoidal rule
  AUC: 9.11E+02
[6]; PDIPG on OBSCs, dose required to kill 10% of the tumor
  EC10: 354 µM
[6]; PDIPG on OBSCs, dose required to kill 25% of the tumor
  EC25: 425 µM
[6]; PDIPG on OBSCs, dose required to kill 75% of the tumor
  EC75: 1310 µM
[6]; PDIPG on OBSCs, slope through the EC50
  Slope: -4.80E-04
[7]; Homo sapiens, U373 MG, dose required to kill 50% of the tumor
  pEC50: 3.22
[7]; Homo sapiens, U373 MG, dose required to kill 90% of the tumor
  EC90: 1830 µM
[7]; Homo sapiens, U373 MG, dosed day 1, survival via bioluminescence day 4, linear interpolation
  pIC50: 3.22
[7]
  Killing at highest dose: 9.70E-01 fraction of tumor population killed
[7]; [8]
  AUC: 8.35E+02
[7]; [9]
  EC10: 83.3 µM
[7]; [10]
  EC25: 208 µM
[7]; [11]
  EC75: 1460 µM
[7]; slope through the EC50
  Slope: -5.60E-04

From article PMC10313921, “A living ex vivo platform for functional, personalized brain cancer diagnosis” (Cell Reports Medicine, 2023)
